# Source: patent publication US8835466B2, “Synthesis and uses of pyroglutamic acid derivatives” (Prodimed, S.A., priority 2006, dated 2014)
# Tested on: KLN 205 cells (lung cell carcinoma)
# Test: Effect of 9d and Cisplatin on KLN 205 tumour growth after subcutaneous, intradermal or intramuscular inoculation (Example 12)
# Assay type: in vivo, DBA/2 mice
# Description: This was carried out by measuring two perpendicular diameters (d1/d2) with a calliper. These measures were used to obtain both tumour surface and volume: […] Results were expressed as single values and/or as the mean±SD or median from each experimental group. This assay was made in order to check the effect on in vivo tumour growth in mice challenged with KLN 205 cells. Tumours where established by subcutaneous, intradermal or intramuscular inoculation. The effect of the combination of cisplatin and/or Isomer (9d) was compared with placebo in mice challenged intradermally. […] KLN 205 is a lung cell carcinoma originated in DBA/2 mouse strain, and therefore syngeneic in mice with DBA/2 genetic background (Kaneko T and […]. Growth characteristics and drug responses of a murine lung carcinoma in vitro and in vivo. Cancer Research. 38: 2084-2090; 1978). KLN 205 cells (CLS, Eppelheim, Germany) were maintained in vitro by serial passages every 3-4 days. […] Louis, Mo., USA) by seeding 5×10^6 cells onto 75 cm^2 culture flasks. Subcultures were carried out by collecting detached cells after treatment with trypsin-EDTA (Sigma, St. Louis, Mo., USA). Tumour cells, collected from 48 hour cultures, were used as source of KLN 205 cells for the studies described below. […] Tumours were established by subcutaneous and intradermal inoculation in the right hind flank, and intramuscular in the right hind leg. Mice (DBA/2) were inoculated with 0.05 mL containing 2×10^5 viable KLN 205 cells. The day of subcutaneous, intradermal and intramuscular inoculation will be considered Day 0 of the test. A case-control study was performed with treated and control mice in order to determine whether differences between placebo, 9d, Cisplatin or 9d+Cisplatin were present. The data obtained (tumour surface and volume) were tested for Normal distribution within the groups (Kolmogorov Smirnov test p<0.05). […] The U-test of Mann Withney was chosen for being one of the better known non-parametrical tests, anyway, results for this test are equivalent both to those of Wilcoxon's sum of ranges and Kruskal-Wallis two-groups test.
# [1] = Group A2 (9d 250 ng/mouse), day 0 after tumour inoculation
# [2] = Group A2 (9d 250 ng/mouse), day 10 after tumour inoculation
# [3] = Group A2 (9d 250 ng/mouse), day 13 after tumour inoculation
# [4] = Group A2 (9d 250 ng/mouse), day 17 after tumour inoculation
# [5] = Group A2 (9d 250 ng/mouse), day 20 after tumour inoculation
# [6] = Group A2 (9d 250 ng/mouse), day 24 after tumour inoculation
# [7] = Group A2 (9d 250 ng/mouse), day 27 after tumour inoculation
# [8] = Group A2 (9d 250 ng/mouse), day 31 after tumour inoculation
# [9] = Group C2 (9d 250 ng/mouse), day 0 after tumour inoculation
# [10] = Group C2 (9d 250 ng/mouse), day 10 after tumour inoculation
# [11] = Group C2 (9d 250 ng/mouse), day 13 after tumour inoculation
# [12] = Group C2 (9d 250 ng/mouse), day 17 after tumour inoculation
# [13] = Group C2 (9d 250 ng/mouse), day 20 after tumour inoculation
# [14] = Group C2 (9d 250 ng/mouse), day 24 after tumour inoculation
# [15] = Group C2 (9d 250 ng/mouse), day 27 after tumour inoculation
# [16] = Group C2 (9d 250 ng/mouse), day 31 after tumour inoculation
# [17] = Group C2 (9d 250 ng/mouse), day 34 after tumour inoculation
# [18] = Group C2 (9d 250 ng/mouse), day 38 after tumour inoculation
# [19] = Groups B2-B4 (9d 250 ng, Cisplatin 65 μg, or both), day 0 after tumour inoculation
# [20] = Groups B2-B4 (9d 250 ng, Cisplatin 65 μg, or both), day 10 after tumour inoculation
# [21] = Groups B2-B4 (9d 250 ng, Cisplatin 65 μg, or both), day 13 after tumour inoculation
# [22] = Groups B2-B4 (9d 250 ng, Cisplatin 65 μg, or both), day 17 after tumour inoculation
# [23] = Groups B2-B4 (9d 250 ng, Cisplatin 65 μg, or both), day 20 after tumour inoculation
# [24] = Groups B2-B4 (9d 250 ng, Cisplatin 65 μg, or both), day 24 after tumour inoculation
# [25] = Groups B2-B4 (9d 250 ng, Cisplatin 65 μg, or both), day 27 after tumour inoculation
# [26] = Groups B2-B4 (9d 250 ng, Cisplatin 65 μg, or both), day 31 after tumour inoculation
structure (smiles),measurement,setting,value
"Br.N[C@]1(C[n+]2ccccc2)C[C@H](C(=O)O)NC1=O.[Br-] (single isomer, unassigned; isomer 4) [isomer 4, 3S,5R-1-(3-Amino-5-carboxy-2-oxopyrrolidin-3-ylmethyl)pyridinium bromide hidrobromide]",SURFACE Overall values (Mean),[1],0 mm^2
same,SURFACE Overall values (Median),[1],0 mm^2
same,VOLUME Overall values (Mean),[1],0 mm^3
same,VOLUME Overall values (Median),[1],0 mm^3
same,SURFACE Overall values (Mean),[2],11.4 mm^2
same,SURFACE Overall values (Median),[2],12.5 mm^2
same,VOLUME Overall values (Mean),[2],22 mm^3
same,VOLUME Overall values (Median),[2],22.75 mm^3
same,SURFACE Overall values (Mean),[3],27.4 mm^2
same,SURFACE Overall values (Median),[3],30 mm^2
same,VOLUME Overall values (Mean),[3],75.5 mm^3
same,VOLUME Overall values (Median),[3],75 mm^3
same,SURFACE Overall values (Mean),[4],49 mm^2
same,SURFACE Overall values (Median),[4],45 mm^2
same,VOLUME Overall values (Mean),[4],171.6 mm^3
same,VOLUME Overall values (Median),[4],135 mm^3
same,SURFACE Overall values (Mean),[5],74.4 mm^2
same,SURFACE Overall values (Median),[5],70 mm^2
same,VOLUME Overall values (Mean),[5],304.2 mm^3
same,VOLUME Overall values (Median),[5],245 mm^3
same,SURFACE Overall values (Mean),[6],117.4 mm^2
same,SURFACE Overall values (Median),[6],118.5 mm^2
same,VOLUME Overall values (Mean),[6],554.9 mm^3
same,VOLUME Overall values (Median),[6],506.25 mm^3
same,SURFACE Overall values (Mean),[7],149.3 mm^2
same,SURFACE Overall values (Median),[7],159 mm^2
same,VOLUME Overall values (Mean),[7],765.05 mm^3
same,VOLUME Overall values (Median),[7],800 mm^3
same,SURFACE Overall values (Mean),[8],179.2 mm^2
same,SURFACE Overall values (Median),[8],186 mm^2
same,VOLUME Overall values (Mean),[8],1020 mm^3
same,VOLUME Overall values (Median),[8],1058.75 mm^3
same,SURFACE Overall values (Mean),[9],0 mm^2
same,SURFACE Overall values (Median),[9],0 mm^2
same,SURFACE Overall values (Mean),[10],0.06 mm^2
same,SURFACE Overall values (Median),[10],0.03 mm^2
same,SURFACE Overall values (Mean),[11],0.18 mm^2
same,SURFACE Overall values (Median),[11],0.17 mm^2
same,SURFACE Overall values (Mean),[12],0.37 mm^2
same,SURFACE Overall values (Median),[12],0.315 mm^2
same,SURFACE Overall values (Mean),[13],0.89 mm^2
same,SURFACE Overall values (Median),[13],0.93 mm^2
same,SURFACE Overall values (Mean),[14],2.48 mm^2
same,SURFACE Overall values (Median),[14],1.83 mm^2
same,SURFACE Overall values (Mean),[15],6.7 mm^2
same,SURFACE Overall values (Median),[15],6.94 mm^2
same,SURFACE Overall values (Mean),[16],13.61 mm^2
same,SURFACE Overall values (Median),[16],12.26 mm^2
same,SURFACE Overall values (Mean),[17],29.17 mm^2
same,SURFACE Overall values (Median),[17],24.34 mm^2
same,SURFACE Overall values (Mean),[18],41.53 mm^2
same,SURFACE Overall values (Median),[18],37.56 mm^2
same,SURFACE Overall values (Mean),[19],0 mm^2
same,SURFACE Overall values (Median),[19],0 mm^2
same,VOLUME Overall values (Mean),[19],0 mm^3
same,VOLUME Overall values (Median),[19],0 mm^3
same,SURFACE Overall values (Mean),[20],14.3 mm^2
same,SURFACE Overall values (Median),[20],12.5 mm^2
same,VOLUME Overall values (Mean),[20],28.85 mm^3
same,VOLUME Overall values (Median),[20],22.75 mm^3
same,SURFACE Overall values (Mean),[21],27.9 mm^2
same,SURFACE Overall values (Median),[21],25 mm^2
same,VOLUME Overall values (Mean),[21],74.95 mm^3
same,VOLUME Overall values (Median),[21],62.5 mm^3
same,SURFACE Overall values (Mean),[22],46.3 mm^2
same,SURFACE Overall values (Median),[22],42 mm^2
same,VOLUME Overall values (Mean),[22],150.05 mm^3
same,VOLUME Overall values (Median),[22],126 mm^3
same,SURFACE Overall values (Mean),[23],71.2 mm^2
same,SURFACE Overall values (Median),[23],63.5 mm^2
same,VOLUME Overall values (Mean),[23],280.6 mm^3
same,VOLUME Overall values (Median),[23],232.75 mm^3
same,SURFACE Overall values (Mean),[24],107.8 mm^2
same,SURFACE Overall values (Median),[24],95 mm^2
same,VOLUME Overall values (Mean),[24],496.8 mm^3
same,VOLUME Overall values (Median),[24],425.25 mm^3
same,SURFACE Overall values (Mean),[25],141.7 mm^2
same,SURFACE Overall values (Median),[25],128 mm^2
same,VOLUME Overall values (Mean),[25],744.75 mm^3
same,VOLUME Overall values (Median),[25],608.5 mm^3
same,SURFACE Overall values (Mean),[26],177.1 mm^2
same,SURFACE Overall values (Median),[26],162.5 mm^2
same,VOLUME Overall values (Mean),[26],1029.35 mm^3
same,VOLUME Overall values (Median),[26],885.75 mm^3
same,"Differences in intradermal KLN 205 tumour growth rate vs. placebo, in words","intradermal inoculation, Mann-Whitney U test",not differences
same,"Intradermal KLN 205 tumour growth vs. placebo, tendency in words","intradermal inoculation, surface or volume, all days scored after day 17th",significant tendency
same,"Differences in intramuscular KLN 205 tumour growth rate vs. placebo, in words","intramuscular inoculation, Mann-Whitney U test",not differences
same,"Inhibition of the in vivo growth of subcutaneous KLN 205 cells, in words",subcutaneous inoculation,inhibit the in vivo growth
same,"Differences in subcutaneous KLN 205 tumour growth rate vs. placebo, statistical significance p (Mann-Whitney U test)","subcutaneous inoculation, surface or volume, all days scored after the day 20th",< 0.05
"N.N.[Cl][Pt][Cl] [Cisplatin, reference compound]",SURFACE Overall values (Mean),[19],0 mm^2
same,SURFACE Overall values (Median),[19],0 mm^2
same,VOLUME Overall values (Mean),[19],0 mm^3
same,VOLUME Overall values (Median),[19],0 mm^3
same,SURFACE Overall values (Mean),[20],7.3 mm^2
same,SURFACE Overall values (Median),[20],6.5 mm^2
same,VOLUME Overall values (Mean),[20],11.05 mm^3
same,VOLUME Overall values (Median),[20],8.75 mm^3
same,SURFACE Overall values (Mean),[21],20 mm^2
same,SURFACE Overall values (Median),[21],20 mm^2
same,VOLUME Overall values (Mean),[21],43.6 mm^3
same,VOLUME Overall values (Median),[21],40 mm^3
same,SURFACE Overall values (Mean),[22],38.3 mm^2
same,SURFACE Overall values (Median),[22],33 mm^2
same,VOLUME Overall values (Mean),[22],115.95 mm^3
same,VOLUME Overall values (Median),[22],91.5 mm^3
same,SURFACE Overall values (Mean),[23],62.2 mm^2
same,SURFACE Overall values (Median),[23],56 mm^2
same,VOLUME Overall values (Mean),[23],233.5 mm^3
same,VOLUME Overall values (Median),[23],196 mm^3
same,SURFACE Overall values (Mean),[24],93.7 mm^2
same,SURFACE Overall values (Median),[24],96 mm^2
same,VOLUME Overall values (Mean),[24],408.05 mm^3
same,VOLUME Overall values (Median),[24],384 mm^3
same,SURFACE Overall values (Mean),[25],124.1 mm^2
same,SURFACE Overall values (Median),[25],129 mm^2
same,VOLUME Overall values (Mean),[25],642.55 mm^3
same,VOLUME Overall values (Median),[25],646.5 mm^3
same,SURFACE Overall values (Mean),[26],151.3 mm^2
same,SURFACE Overall values (Median),[26],155 mm^2
same,VOLUME Overall values (Mean),[26],848.95 mm^3
same,VOLUME Overall values (Median),[26],775 mm^3
same,"Inhibition of the in vivo growth of intradermal KLN 205 cells, in words",intradermal inoculation,inhibit the in vivo growth
same,"Differences in intradermal KLN 205 tumour growth rate vs. placebo, statistical significance p (Mann-Whitney U test)","intradermal inoculation, surface or volume, days 17th, 20th and 31th",< 0.05
